This is an account of results in patent US20230104357A1, “Combination of Retromer Pharmacological Chaperones and Exogenous Retromer for the Treatment of Alzheimer's Disease and Other Neurodegenerative Diseases and Disorders” (The Trustees of Columbia University in the City of New York, priority 2020, published 2023).

Assay [1] concerns the target T1, VPS35 (Homo sapiens, UniProt Q96QK1).
T1 construct: expressed in transfected cells; host or cells: HECT293T cells
The assay can be described thus: Western blot of VPS35 protein levels in HECT293T cells after VPS35 plasmid transfection and/or R55. It is filed as cell-based. The note with it: 5 μM of R55, Western blot 72 hours after transfection, lanes 7 and 8. As to the method: Human HECT293 cells, considered a model for human neurons, were cultured. VPS35 was delivered via plasmid to HECT293T cells under control of the constitutive EF1a promoter. Pharmacological chaperone R55 was administered to the cells as an aqueous solution at concentrations of 5 uM and 50 uM at the time of transfection. Protein levels were assessed by Western blot 72 hours after transfection.
Lipofectamine transfection protocols were used with some modifications. Briefly lipofectamine LTX was used to co-transfect Vps35 and Vps26 (Vps26a or Vps26b) plasmids into the cells in a 6 well format. 100k cells were plated in each well already containing medium with DNA-lipofectamine complexes. Empty chassis and GFP as were used as control plasmids. Amount of DNA copies introduced per well was 2.81 E+11. Cells were harvested 48 hours after transfection using RIPA buffer as described previously (Qureshi et al. 2019).
Cells were lysed in RIPA and protein were isolated as described previously (Qureshi et al. 2019; Kirby et al. 2015). Lysates from the samples were run on NuPAGE® Bis-Tris 4-12% gels, transferred onto nitrocellulose membranes using iblot and were probed with antibodies.
A primary antibody targeting VPS35 was used (ab57632, Abcam, 1:1k). Western blots were scanned using the Odyssey imaging system as described previously (Eaton et al. 2013). […]
On the technique in general: In western blotting, separated proteins are transferred to a membrane and probed.

Assay [2] concerns the target purified, reconstituted heterotrimeric complex (Homo sapiens, UniProt Q96QK1+Q9UBQ0). The conditions noted are these: various concentrations; Mecozzi et al. 2014; cited from earlier work.
Assay [3] concerns the target T2, VPS35 (Mus musculus, UniProt Q9EQH3).
T2 construct: cultured primary neurons; endogenous in cells; host or cells: cultured primary neurons
The conditions noted are these: cultured primary neurons; Mecozzi et al. 2014; cited from earlier work.

Another assay relates to VPS26. The note with it: cultured primary neurons; Mecozzi et al. 2014; cited from earlier work.

Take `[H]/N=C(\N)SCc1ccc(CS/C(N)=N/[H])s1` [R55]: at VPS35 [1], the “increase on endogenous VPS35 protein levels” value is recorded as “about 50%”. Besides, in assay [2], the “thermal stability (denaturation temperature of the complex)” value is “improved thermal stability significantly”. Besides, the VPS35 protein levels entry at VPS35 [3] is “increased”. In addition, the VPS26 protein levels result in the assay on VPS26 was “increased”.
